In patent US9399637B2, “Substituted heteroaryl compounds and methods of use” (Calitor Sciences, LLC, priority 2014, dated 2016) one finds IC50, half-life and CLint scaled data, which are given here for two compounds.

What is called IC50 is the midpoint of a concentration-inhibition curve. The CLint scaled is the capacity of the preparation to metabolise the compound, expressed as a volume cleared per time.

One series concerns the target T1, TYK2 (h) (Homo sapiens, UniProt P29597).
T1 construct: purchased Millipore UK Ltd (assays run there as a service)
The experiment in a line: TYK2 kinase assay. Type of series: biochemical. The protocol:
(§1) Kinase assays can be performed by measurement of incorporation of γ-^33P ATP into immobilized myelin basic protein (MBP). High binding white 384 well plates (Greiner) are coated with MBP (Sigma #M-1891) by incubation of 60 μL/well of 20 μg/mL MBP in Tris-buffered saline (TBS; 50 mM Tris pH 8.0, 138 mM NaCl, 2.7 mM KCl) for 24 h at 4° C. Plates are washed 3× with 100 μL TBS. Kinase reactions are carried out in a total volume of 34 μL in kinase buffer (5 mM Hepes pH 7.6, 15 mM NaCl, 0.01% bovine gamma globulin (Sigma #I-5506), 10 mM MgCl2, 1 mM DTT, 0.02% TritonX-100). Compound dilutions are performed in DMSO and added to assay wells to a final DMSO concentration of 1%. Each data point is measured in duplicate, and at least two duplicate assays are performed for each individual compound determination. Enzyme is added to final concentrations of 10 nM or 20 nM, for example. A mixture of unlabeled ATP and γ-^33P ATP is added to start the reaction (2×10^6 cpm of γ-^33P ATP per well (3000 Ci/mmole) and 10 μM unlabeled ATP, typically. The reactions are carried out for 1 h at room temperature with shaking Plates are washed 7× with TBS, followed by the addition of 50 μL/well scintillation fluid (Wallac). Plates are read using a Wallac Trilux counter. This is only one format of such assays; various other formats are possible, as known to one skilled in the art. […]

The next series deals with T2, FLT3 (h) (Homo sapiens, UniProt P36888).
T2 construct: purchased Millipore UK Ltd (assays run there as a service)
T2 sequence (P36888 27-993): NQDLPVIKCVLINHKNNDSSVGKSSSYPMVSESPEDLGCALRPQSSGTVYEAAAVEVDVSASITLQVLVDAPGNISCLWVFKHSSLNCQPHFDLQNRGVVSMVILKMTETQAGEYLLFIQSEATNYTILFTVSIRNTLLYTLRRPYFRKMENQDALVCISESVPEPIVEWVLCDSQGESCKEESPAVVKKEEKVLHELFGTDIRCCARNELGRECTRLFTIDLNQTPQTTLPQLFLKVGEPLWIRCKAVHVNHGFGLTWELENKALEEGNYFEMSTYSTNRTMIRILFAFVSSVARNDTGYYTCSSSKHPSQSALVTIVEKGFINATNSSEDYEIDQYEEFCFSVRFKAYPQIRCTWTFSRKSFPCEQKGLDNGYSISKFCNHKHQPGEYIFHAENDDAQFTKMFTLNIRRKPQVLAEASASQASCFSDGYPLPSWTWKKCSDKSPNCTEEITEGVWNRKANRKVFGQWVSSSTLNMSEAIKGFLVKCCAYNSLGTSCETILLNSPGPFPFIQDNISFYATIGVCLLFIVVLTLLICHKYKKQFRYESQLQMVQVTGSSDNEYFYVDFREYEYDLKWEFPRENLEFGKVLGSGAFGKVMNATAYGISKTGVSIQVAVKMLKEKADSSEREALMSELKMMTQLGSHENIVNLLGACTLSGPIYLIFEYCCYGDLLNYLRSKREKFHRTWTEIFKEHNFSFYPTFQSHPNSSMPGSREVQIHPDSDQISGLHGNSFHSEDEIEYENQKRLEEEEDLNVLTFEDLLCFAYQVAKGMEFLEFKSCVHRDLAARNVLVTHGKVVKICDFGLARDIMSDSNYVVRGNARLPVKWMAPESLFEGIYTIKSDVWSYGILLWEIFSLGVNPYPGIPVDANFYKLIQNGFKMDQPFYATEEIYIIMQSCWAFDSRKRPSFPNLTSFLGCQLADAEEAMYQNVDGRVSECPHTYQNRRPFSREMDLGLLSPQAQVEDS
The experiment in a line: FLT3 kinase assay. Type of series: biochemical. How it is done:
as §1

The nature of series [1]: Compound stability in human liver microsomes. Type of series: in vitro ADME. The conditions noted are these: pH 7.4; for half-life at 5 μM: human liver microsomes 0.5 mg protein/mL, compound 5 μM, NADPH, 37° C., read-out: Human T1/2; for CLint scaled at 5 μM: human liver microsomes, in vivo CLint extrapolated. How it is done: Human or rat liver microsomes incubations were conducted in duplicate in polypropylene tubes. The typical incubation mixtures consisted of human or rat liver microsomes (0.5 mg protein/mL), compounds of interest (5 μM) and NADPH (1.0 mM) in a total volume of 200 μL potassium phosphate buffer (PBS, 100 mM, pH 7.4). Compounds were dissolved in DMSO and diluted with PBS such that the final concentration of DMSO was 0.05%. The enzymatic reactions were commenced with the addition of […] after a 3-min preincubation and incubated in a water bath open to the air at 37° C. Reactions were terminated at various time points (0, 5, 10, 15, 30, 60 min) by adding equal volume of ice-cold acetonitrile. The samples were stored at […] until LC/MS/MS assays.
The concentrations of compounds in the incubation mixtures of human or rat liver microsomes were determined by a LC/MS/MS method. The ranges of the linearity in the concentration range were determined for each tested compounds.
A parallel incubation was performed using denatured microsomes as the negative control, and reactions were terminated at various time points (0, 15, 60 min) after incubation at 37° C.
Dextromethorphan (70 μM) was selected as the positive control, and reactions were terminated at various time points (0, 5, 10, 15, 30, 60 min) after incubation at 37° C. Both positive and negative control samples were included in each assay to ensure the integrity of the microsomal incubation system.
The concentrations of compounds in human or rat liver microsome incubations were plotted as a percentage of the relevant zero time point control for each reaction. The in vivo CLint were extrapolated (ref.: Naritomi, Y.; Terashita, S.; Kimura, S.; Suzuki, A.; Kagayama, A.; and Sugiyama, Y.; Prediction of human hepatic clearance from in vivo animal experiments and in vitro metabolic studies with liver microsomes from animals and humans. Drug Metab. Dispos., 2001, 29: 1316-1324).

T1 sequence (P29597 whole entry): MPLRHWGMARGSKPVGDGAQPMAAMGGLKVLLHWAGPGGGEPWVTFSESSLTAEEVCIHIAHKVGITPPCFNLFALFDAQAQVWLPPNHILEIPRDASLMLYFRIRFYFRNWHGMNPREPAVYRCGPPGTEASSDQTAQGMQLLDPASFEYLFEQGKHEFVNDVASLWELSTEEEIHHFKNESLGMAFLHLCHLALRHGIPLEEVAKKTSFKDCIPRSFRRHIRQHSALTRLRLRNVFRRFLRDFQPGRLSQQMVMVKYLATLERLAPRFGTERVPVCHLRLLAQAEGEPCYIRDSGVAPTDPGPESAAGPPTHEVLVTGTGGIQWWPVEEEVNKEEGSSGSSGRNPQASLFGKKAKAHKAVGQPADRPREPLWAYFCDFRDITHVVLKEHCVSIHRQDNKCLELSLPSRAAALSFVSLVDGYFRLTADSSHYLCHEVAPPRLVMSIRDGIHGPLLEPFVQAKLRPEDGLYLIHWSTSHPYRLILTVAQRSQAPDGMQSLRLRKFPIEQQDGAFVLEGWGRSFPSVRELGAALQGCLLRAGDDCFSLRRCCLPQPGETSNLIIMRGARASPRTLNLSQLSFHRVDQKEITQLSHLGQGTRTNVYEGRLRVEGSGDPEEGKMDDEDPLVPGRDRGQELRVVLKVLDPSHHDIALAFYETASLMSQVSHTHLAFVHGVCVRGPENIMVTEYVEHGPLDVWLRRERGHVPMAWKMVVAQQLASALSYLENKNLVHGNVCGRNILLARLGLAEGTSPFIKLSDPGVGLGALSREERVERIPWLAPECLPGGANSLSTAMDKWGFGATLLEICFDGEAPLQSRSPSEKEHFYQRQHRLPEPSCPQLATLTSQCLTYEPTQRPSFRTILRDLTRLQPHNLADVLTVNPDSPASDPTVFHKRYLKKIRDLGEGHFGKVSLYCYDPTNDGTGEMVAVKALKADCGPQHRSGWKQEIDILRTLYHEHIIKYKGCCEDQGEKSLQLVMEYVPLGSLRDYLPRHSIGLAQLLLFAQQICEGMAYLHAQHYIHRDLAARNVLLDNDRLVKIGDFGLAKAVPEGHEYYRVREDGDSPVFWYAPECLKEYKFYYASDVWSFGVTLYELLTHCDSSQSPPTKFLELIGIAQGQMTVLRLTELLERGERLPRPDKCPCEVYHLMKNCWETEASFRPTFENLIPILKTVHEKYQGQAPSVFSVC

Turning to `Cc1c2ccc(Nc3ncc(Cl)c(NC4CC5CN(C(=O)CC#N)CC5C4)n3)cc2nn1C` (stereo not shown) [Ex. 4, 3-(5-((5-chloro-2-((2,3-dimethyl-2H-indazol-6-yl)amino)pyrimidin-4-yl)amino)hexahydrocyclopenta[c]pyrrol-2(1H)-yl)-3-oxopropanenitrile], the IC50 on TYK2 (h) was 20 nM; against FLT3 (h), 545 nM. In addition, the half-life at 5 μM in series [1] was found to be 14.3 min. In series [1], the CLint scaled at 5 μM is 122 mL/min/kg.
Compound `CC(=O)N1CCC2(CCC(Nc3nc(Nc4ccc5c(C)n(C)nc5c4)ncc3Cl)CC2)CC1` [Ex. 7, 1-(9-((5-chloro-2-((2,3-dimethyl-2H-indazol-6-yl)amino)pyrimidin-4-yl)amino)-3-azaspiro[5.5]undecan-3-yl)ethanone] gave an IC50 against FLT3 (h) of 3 nM. In series [1], the half-life at 5 μM amounted to 42.9 min and the CLint scaled at 5 μM is 40.5 mL/min/kg.
